Converted amounts (≈) assume the structure as drawn.
Key:
[1] = tested on: Lactobacillus spp.; test: Broth microdilution MIC; format: cell-based
Description: (§1) Panel reference strains of bacteria from the American Type Culture Collection or Polish Collection of Microorganisms, including aerobic Gram-positive bacteria: Staphylococcus aureus ATCC 25923 and Staphylococcus epidermidis ATCC 12228, and aerobic Gram-negative bacteria: Escherichia coli ATCC 25922 and Pseudomonas aeruginosa ATCC 9027, as well as microaerobic Gram-positive bacteria: Lactobacillus spp., Lactobacillus acidophilus PCM 2105, Streptococcus mutans PCM 2502 and Streptococcus sanguinis PCM 2335, were used. Microbial suspensions with an optical density of 0.5 McFarland standard at 1.5 × 10^8 CFU/mL (CFU: colony forming unit) were prepared in sterile 0.9 % NaCl. Mueller–Hinton (M–H) broth and M–H agar (Oxoid Ltd., England) for aerobic strains, and MRS Broth Lactobacillus, MRS Agar Lactobacillus (BioMaxima S.A., Poland), BHI Broth and BHI agar (BioMaxima S.A., Poland) for microaerobic strains were used in the microbial tests.
(§2) A broth microdilution method was used to evaluate the minimum inhibition concentration (MIC) according to the CLSI document (CLSI performance standards for antimicrobial susceptibility testing, 2008, Eighteenth International Supplement, CLSI document M7-MIC, Clinical Laboratory Standards Institute, Wayne) with some modifications. […] A serial doubling dilution of the compounds was prepared in 96-well plates (200 μL per well). A suitable medium (M-H Broth, MRS Broth Lactobacillus, BHI Broth) was used as a diluent. The final concentrations of derivatives were 1000–0.015 μg/mL. Finally, 2 μL of inoculum of the tested bacterial strain (1.5 × 10^8 CFU/mL) was added to each well. The tests were performed either at 36 °C for 18 h (aerobic strains) or at 40 h (microaerobic strains). After incubation, the panel was digitally analyzed at 600 nm using the microplate reader Bio Tech Synergy (USA) with a dedicated software system. The growth intensity in each well was compared with the negative and positive controls.

[2] = tested on: pathogenic microaerobic bacteria (causing dental caries); test: Broth microdilution MIC, summary in text; format: cell-based; conditions: range over compounds and strains; read-out: MIC against pathogenic microaerobic bacteria
Description: as §1, §2

[3] = tested on: aerobic Gram-positive bacteria; test: Broth microdilution MIC, summary in text; format: cell-based; conditions: range over compounds and strains; read-out: MIC against aerobic Gram-positive bacteria
Description: as §1, §2

[4] = Cytotoxicity MTT assay; format: cell-based; conditions: human, BJ cells (normal human skin fibroblasts), read-out: CC50 (concentration required for a 50 % reduction of cell viability)
Procedure: Normal human skin fibroblasts (BJ), human hepatocellular carcinoma (HepG2) and human breast adenocarcinoma (MCF-7) were obtained from American Type Culture Collection (ATCC, England, UK). The cells were cultured in Eagle’s minimum essential medium (EMEM, ATCC) supplemented with 10 % fetal bovine serum (FBS, PAA Laboratories), 100 U/mL penicillin and 100 μg/mL streptomycin (Sigma-Aldrich). In the case of the MCF-7 cell line, the culture medium was additionally supplemented with 0.01 μg/mL of human recombinant insulin (Sigma-Aldrich). The cells were grown in 75-cm^2 flasks and maintained at 37 °C in a humidified atmosphere of 5 % CO2 and 95 % air.
In order to determine the cytotoxicity, BJ cells were seeded in flat-bottom 96-well plates in 100 μL of a complete growth medium at a concentration of 1.7 × 10^4 cells/well and incubated for 24 h at 37 °C in a humidified atmosphere of 5 % CO2. Immediately before drug treatment, the synthesized compounds (1, 2, 4, 5, 6, 7, 10) were dissolved in dimethyl sulfoxide (DMSO, Sigma-Aldrich) and then diluted in cell culture medium supplemented with 2 % FBS. […] After incubation, the growth medium was replaced with 100 μL of the appropriate serial dilutions of the investigated compounds. Untreated cells were used as negative controls, and different concentrations of DMSO were used as the solvent control. The cell cultures were incubated at 37 °C for 24 h. The cytotoxicity was estimated using the 3-(4,5-dimethylthiazol-2-yl)-2,5-diphenyltetrazolium bromide (MTT) assay as described by Mosmann with some modifications (Mosmann, [1983]). Briefly, the cells were incubated for 3 h with 25 μL of MTT solution ([…] in PBS buffer) per well. The MTT assay is a rapid colorimetric method based on the conversion of mitochondrial succinate dehydrogenase from yellow, soluble tetrazolium salt to blue formazan crystals to determine the number of viable cells. In order to dissolve formazan crystals in live cells, 100 μL of SDS-HCl solution (10 % SDS in 0.01 N HCl) was added per well. After overnight incubation, absorbance was measured at 570 nm using microplate reader (BioTek ELx50). The MTT assay was repeated in three independent experiments performed in octuplicates. The half-maximal cytotoxic concentration (CC50) was defined as the compound concentration (μg/mL) required to reduce cell viability to 50 %. Therapeutic index (TI) is a widely accepted parameter to represent the specificity of antibacterial agents for human (Begg et al., [1999]). In this study, the in vitro TI values were calculated as the ratio of CC50 (cytotoxic activity) and MIC (antibacterial activity); thus, greater values of in vitro therapeutic index indicate safer specificity for eukaryotic cells.
The data were analyzed using one-way ANOVA test followed by Dunnett’s test. Differences were considered as significant with p < 0.01 (GraphPad Prism 5, Version 5.04 Software). The values of CC50 and IC50 were calculated via 4-parameter nonlinear regression analyses using GraphPad Prism 5, version 5.04.

Structure (SMILES)	MIC ([1]; Lactobacillus, read-out: Minimum inhibitory concentration (MIC), Lactobacillus spp.)	MIC [2]	MIC [3]	melting point	Minimum inhibitory concentration (MIC), Lactobacillus spp. [1]	CC50 at 24 h [4]
O=C(NNC(=S)Nc1ccc(Cl)cc1Cl)c1ccccn1 [Compound 4, 4-(2,4-Dichlorophenyl)-1-(pyridin-2-yl)carbonylthiosemicarbazide]	31.2 µg/mL	7.81 to 500 µg/mL	15.6 to 500 µg/mL	158 to 160 °C		19.5 µg/mL (≈ 57.1 µM)
[H]/N=C(\N/C(=N/[H])NCCCCCCNC(=N)NC(=N)Nc1ccc(Cl)cc1)Nc1ccc(Cl)cc1 [CLX, chlorhexidine digluconate, reference compound]						8.46 µg/mL
CCOc1ccc2nc3cc(N)ccc3c(N)c2c1 [Ethacridine lactate, ethacridine lactate, reference compound]						6.88 µg/mL
O=C(NNC(=S)Nc1ccccc1Cl)c1ccccn1 [Compound 2, 4-(2-Chlorophenyl)-1-(pyridin-2-yl)carbonylthiosemicarbazide]		7.81 to 500 µg/mL	15.6 to 500 µg/mL	172 to 174 °C		

Now from value to molecule, other results behind:

MIC ([1]; Lactobacillus, read-out: Minimum inhibitory concentration (MIC), Lactobacillus spp.)	MIC [2]	MIC [3]	melting point	Minimum inhibitory concentration (MIC), Lactobacillus spp. [1]	Structure (SMILES)	CC50 at 24 h [4]
			196 to 197 °C		O=C(NNC(=S)Nc1ccc(Cl)cc1Cl)c1cccnc1 [Compound 7, 4-(2,4-Dichlorophenyl)-1-(pyridin-3-yl)carbonylthiosemicarbazide]	88.3 µg/mL (≈ 259 µM)
		15.6 to 500 µg/mL	176 to 177 °C	did not limit the growth	CSc1ccc(NC(=S)NNC(=O)c2cccnc2)cc1 [Compound 6, 4-(4-Methylthiophenyl)-1-(pyridin-3-yl)carbonylthiosemicarbazide]	917 µg/mL (≈ 2880 µM)

Reference: article PMC4958397, “Synthesis, antibacterial and antiproliferative potential of some new 1-pyridinecarbonyl-4-substituted thiosemicarbazide derivatives” (Medicinal Chemistry Research, 2016)
